From ChEMBL document CHEMBL1201862, “PubChem BioAssay data set” (2004)
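Growth conditions: 96-well plates. Treatment: test compound, 48 hours, 5 concentrations. Analysis: linear interpolation between bracketing concentrations; unreached endpoints set to highest concentration. GI50 marks 50% less growth.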 Calls of active or inactive are those of the source. Cut-off read from the data, not from the text of the source: active = GI50 up to about 1.1 µM and inactive = higher.

Key:
Assay in all cases: DTP human tumour cell line panel, 48 h
[1] = system: ACHN
[2] = system: BT-549
[3] = system: CAKI-1
[4] = system: CCRF-CEM
[5] = system: HCC 2998
[6] = system: HL-60
[7] = system: IGROV-1
[8] = system: M14
[9] = system: MDA-MB-435
[10] = system: MDA-N
[11] = system: NCI-H23
[12] = system: NCI-H460
[13] = system: NCI-H522
[14] = system: OVCAR-5
[15] = system: PC-3
[16] = system: RPMI-8226
[17] = system: SF-295
[18] = system: SK-OV-3
[19] = system: SNB-75
[20] = system: TK-10

Row | SMILES | GI50 [1] | GI50 [2] | GI50 [3] | GI50 [4] | GI50 [5] | GI50 [6] | GI50 [7] | GI50 [8] | GI50 [9] | GI50 [10] | GI50 [11] | GI50 [12] | GI50 [13] | GI50 [14] | GI50 [15] | GI50 [16] | GI50 [17] | GI50 [18] | GI50 [19] | GI50 [20]
1 | OCC(Cn1cncn1)(c1ccc(F)cc1F)n1cncn1 (centres undefined) | > 100 µM (inactive) | > 100 µM (inactive) | > 100 µM (inactive) | > 100 µM (inactive) | > 100 µM (inactive) | > 100 µM (inactive) | > 100 µM (inactive) | > 100 µM (inactive) | > 100 µM (inactive) | > 100 µM (inactive) | > 100 µM (inactive) | > 100 µM (inactive) | > 100 µM (inactive) | > 100 µM (inactive) | > 100 µM (inactive) | > 100 µM (inactive) | > 100 µM (inactive) | > 100 µM (inactive) | > 100 µM (inactive) | > 100 µM (inactive)
2 | CCOC(=O)c1ccc(Nc2nc3cc(C(F)(F)F)ccc3nc2C(=O)OCC)cc1 | 42 µM (inactive) | 72.6 µM (inactive) | 23.5 µM (inactive) | > 100 µM (inactive) | 22.1 µM (inactive) | > 100 µM (inactive) | > 100 µM (inactive) | 34.2 µM (inactive) | > 100 µM (inactive) | > 100 µM (inactive) | 99.1 µM (inactive) | 74.3 µM (inactive) | > 100 µM (inactive) | > 100 µM (inactive) | 47.8 µM (inactive) | > 100 µM (inactive) | 38.3 µM (inactive) | 44.5 µM (inactive) | 40.2 µM (inactive) | 26.4 µM (inactive)
3 | CCCc1[nH]nc(C(N)=O)c1/N=N/N(C)C | 44.2 µM (inactive) | 24.3 µM (inactive) | 28.4 µM (inactive) | 27 µM (inactive) | > 100 µM (inactive) | 8.34 µM (inactive) | 28.5 µM (inactive) | > 100 µM (inactive) | > 100 µM (inactive) | > 100 µM (inactive) | 75.3 µM (inactive) |  | 17.8 µM (inactive) |  | > 100 µM (inactive) | 39.4 µM (inactive) | 57.9 µM (inactive) | 59.7 µM (inactive) | 16.1 µM (inactive) | 67.5 µM (inactive)
4 | O=S(=O)(O)c1ccc2c(/N=N\c3cccc4ccccc34)c(O)c(S(=O)(=O)O)cc2c1 | > 100 µM (inactive) | > 100 µM (inactive) | > 100 µM (inactive) | > 100 µM (inactive) | > 100 µM (inactive) | > 100 µM (inactive) | > 100 µM (inactive) | > 100 µM (inactive) | > 100 µM (inactive) | > 100 µM (inactive) | > 100 µM (inactive) | > 100 µM (inactive) | > 100 µM (inactive) | > 100 µM (inactive) | > 100 µM (inactive) | > 100 µM (inactive) | > 100 µM (inactive) | > 100 µM (inactive) | > 100 µM (inactive) | > 100 µM (inactive)
5 | CC[C@@]1(O)C(=O)OCc2c1cc1n(c2=O)Cc2cc3c(N)cccc3nc2-1 [9-AMINOCAMPTOTHECIN] | < 0.01 µM (active) | 0.0684 µM (active) | < 0.01 µM (active) | < 0.0369 µM (active) | 0.111 µM (active) | < 0.01 µM (active) | 0.246 µM (active) | 0.0113 µM (active) | 0.118 µM (active) | 0.229 µM (active) | < 0.01 µM (active) | < 0.01 µM (active) | 0.0181 µM (active) | 0.128 µM (active) | 0.0728 µM (active) | 0.0764 µM (active) | < 0.01 µM (active) | 0.0157 µM (active) | < 0.0115 µM (active) | 1.63 µM (inactive)
6 | CC(Cl)(CCC(Cl)C(C)(C)Cl)C(=O)CBr (centres undefined) | 8.04 µM (inactive) | 14.2 µM (inactive) | 14 µM (inactive) | 0.877 µM (active) | 17.1 µM (inactive) | 2.24 µM (inactive) | 13.3 µM (inactive) | 9.79 µM (inactive) | 14.2 µM (inactive) | 8.2 µM (inactive) | 18.3 µM (inactive) | 15.9 µM (inactive) | 1.95 µM (inactive) | 17.5 µM (inactive) | 14.6 µM (inactive) | 2.25 µM (inactive) | 21.4 µM (inactive) | 13.4 µM (inactive) | 13.6 µM (inactive) | 11.8 µM (inactive)
7 | CC(=O)CCCCC(=O)Nc1ccc(CC(NC(=O)OC(C)(C)C)C(=O)NCC(=O)OCc2ccccc2)cc1 (centres undefined) | 30.5 µM (inactive) | 14.1 µM (inactive) | 15.7 µM (inactive) |  | 16.4 µM (inactive) | 19.5 µM (inactive) | 33.3 µM (inactive) | 17.5 µM (inactive) | 21.2 µM (inactive) | 21 µM (inactive) | 30.8 µM (inactive) | 20.7 µM (inactive) | 23.6 µM (inactive) | 63.4 µM (inactive) | 14.4 µM (inactive) | 18 µM (inactive) | 18.8 µM (inactive) | 23 µM (inactive) | 4.44 µM (inactive) | 63.1 µM (inactive)
8 | CN(C)CC1CCC/C(=C\c2ccc(Cl)cc2)C1=O (centres undefined) | 2.57 µM (inactive) | 1.73 µM (inactive) | 1.93 µM (inactive) | 0.713 µM (active) | 7.38 µM (inactive) | 1.37 µM (inactive) | 3.21 µM (inactive) | 2.28 µM (inactive) | 3.83 µM (inactive) | 1.94 µM (inactive) | 8.02 µM (inactive) | 17.3 µM (inactive) | 1.75 µM (inactive) | 16.9 µM (inactive) | 2.67 µM (inactive) | 0.254 µM (active) | 14.2 µM (inactive) | 10.9 µM (inactive) | 3.25 µM (inactive) | 3.9 µM (inactive)
9 | C[C@H](C1CC(C)(O)C(C)(O)C(O)O1)[C@H]1CC[C@H]2[C@@H]3[C@@H]4O[C@@H]4[C@@]4(O)CC=CC(=O)[C@]4(C)[C@H]3CC[C@]12C (some centres undefined) | 45.4 µM (inactive) | > 50 µM (inactive) | > 50 µM (inactive) | > 50 µM (inactive) | > 50 µM (inactive) | > 50 µM (inactive) | > 50 µM (inactive) | > 50 µM (inactive) | > 50 µM (inactive) | > 50 µM (inactive) | > 50 µM (inactive) | > 50 µM (inactive) | 18.2 µM (inactive) | > 50 µM (inactive) | > 50 µM (inactive) | > 50 µM (inactive) | > 50 µM (inactive) | 14.8 µM (inactive) | 20.9 µM (inactive) | > 50 µM (inactive)
10 | c1ccc2c(c1)NC1(N3CCCCC3)CCCCC21 (centres undefined) | 47.1 µM (inactive) | 53 µM (inactive) | 55.6 µM (inactive) | 32.4 µM (inactive) | 76.4 µM (inactive) | 29.6 µM (inactive) | 28.2 µM (inactive) | 55.3 µM (inactive) | 35.2 µM (inactive) | 28.1 µM (inactive) | 50.5 µM (inactive) | 50.6 µM (inactive) | 35.8 µM (inactive) | 35.2 µM (inactive) | 39.4 µM (inactive) | 39.1 µM (inactive) | 45.4 µM (inactive) | > 100 µM (inactive) | 22.5 µM (inactive) | > 100 µM (inactive)
11 | CN1CC2=C(N=C(S)NC2c2ccccc2)/C(=C/c2ccccc2)C1 (centres undefined) | 52.6 µM (inactive) | > 100 µM (inactive) | > 100 µM (inactive) | 31.1 µM (inactive) | 29.3 µM (inactive) | > 10 µM (inactive) | 24.5 µM (inactive) | 25.4 µM (inactive) | 46.8 µM (inactive) | 35.7 µM (inactive) | 56.2 µM (inactive) | 32.1 µM (inactive) | 43 µM (inactive) | > 100 µM (inactive) | 15 µM (inactive) | 46.6 µM (inactive) | 17.9 µM (inactive) | 22.2 µM (inactive) | 48 µM (inactive) | 26 µM (inactive)
12 | CC(C)(C)c1ccc(NS(=O)(=O)c2ccc(N)cc2)cc1 | 29.4 µM (inactive) | 23.4 µM (inactive) | 38.3 µM (inactive) | 16.3 µM (inactive) | 18.8 µM (inactive) | 18.1 µM (inactive) | 18.8 µM (inactive) | 20.5 µM (inactive) | 29.9 µM (inactive) | 23.6 µM (inactive) | 26 µM (inactive) | 33.7 µM (inactive) | 17 µM (inactive) | 31.5 µM (inactive) | 28.5 µM (inactive) | 11.6 µM (inactive) | 1.9 µM (inactive) | 3.29 µM (inactive) | 30.8 µM (inactive) | 59 µM (inactive)
13 | O=C(c1ccccc1)c1sc2c(=O)c(C(=O)c3ccccc3)c(C(=O)c3ccccc3)sc2c(=O)c1C(=O)c1ccccc1 | 51.9 µM (inactive) | 37.7 µM (inactive) | 18.9 µM (inactive) | 23.8 µM (inactive) | 19.5 µM (inactive) | 21.5 µM (inactive) | 15.6 µM (inactive) | 31.5 µM (inactive) | 27.1 µM (inactive) | 32.2 µM (inactive) | 42.3 µM (inactive) | > 100 µM (inactive) | 18 µM (inactive) | > 100 µM (inactive) | > 100 µM (inactive) |  | 96.6 µM (inactive) | 37.8 µM (inactive) | 24.5 µM (inactive) | 64.3 µM (inactive)
14 | C[n+]1c2ccccc2n2c3ccccc3c(NCCCn3ccnc3)c(C#N)c21 | 3.48 µM (inactive) | 17.6 µM (inactive) | 10.5 µM (inactive) |  | 1.36 µM (inactive) | 3.94 µM (inactive) |  | 2.26 µM (inactive) | 2.23 µM (inactive) | 2.7 µM (inactive) | 2.27 µM (inactive) | 1.44 µM (inactive) | 0.575 µM (active) | 4.1 µM (inactive) | 2.02 µM (inactive) | 1.22 µM (inactive) | 3.74 µM (inactive) | 3.54 µM (inactive) | 1.66 µM (inactive) | 7.11 µM (inactive)
